Measured values: PubChem BioAssay AID1845217 (Molecular Pharmacology Branch, DTP, NCI, 2023)

System: VA-ES-BJ tumor spheroid viability
Assay: Anticancer human tumor VA-ES-BJ cell line growth inhibition;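 also: spheroids exposed to compounds for seven days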;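 as to viability, T/C: percent of DMSO vehicle control viability so 100% = untreated growth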
Details: spheroids with HUVEC and MSC; for IC50: curve of first compound; for viability, T/C: stronger effect = lower value
In short: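 Complex tumor spheroids combined malignant cells with endothelial cells and mesenchymal stem cells. DNA-damaging drugs and DNA repair inhibitors were tested alone and in combination, at half-log dilutions down from clinical Cmax (top 10 microM if Cmax unknown), 0.25% DMSO final.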

## Cc1cc(C)c(CNC(=O)c2cc(-c3ccc(CN4CCOCC4)cc3)cc3c2cnn3C2CCCC2)c(=O)[nH]1 + CC[C@@]1(O)C(=O)OCc2c1cc1n(c2=O)Cc2cc3c(CN(C)C)c(O)ccc3nc2-1
Second compound 0.003 µM
  IC50: > 10 µM
Second compound 0.00949 µM
  IC50: > 10 µM
Second compound 0.03 µM
  IC50: < 0.0316 µM
Second compound 0.0949 µM
  IC50: < 0.0316 µM
Second compound 0.3 µM
  IC50: < 0.0316 µM
Second compound 0.003 µM, first compound 0.0316 µM
  viability, T/C: 92.3%
Second compound 0.003 µM, first compound 0.1 µM
  viability, T/C: 98%
Second compound 0.003 µM, first compound 0.316 µM
  viability, T/C: 95%
Second compound 0.003 µM, first compound 1 µM
  viability, T/C: 98.9%
Second compound 0.003 µM, first compound 3.16 µM
  viability, T/C: 103%
Second compound 0.003 µM, first compound 10 µM
  viability, T/C: 94.8%
Second compound 0.00949 µM, first compound 0.0316 µM
  viability, T/C: 74.2%
Second compound 0.00949 µM, first compound 0.1 µM
  viability, T/C: 84%
Second compound 0.00949 µM, first compound 0.316 µM
  viability, T/C: 93.5%
Second compound 0.00949 µM, first compound 1 µM
  viability, T/C: 90%
Second compound 0.00949 µM, first compound 3.16 µM
  viability, T/C: 86.5%
Second compound 0.00949 µM, first compound 10 µM
  viability, T/C: 62.1%
Second compound 0.03 µM, first compound 0.0316 µM
  viability, T/C: 37.3%
Second compound 0.03 µM, first compound 0.1 µM
  viability, T/C: 39%
Second compound 0.03 µM, first compound 0.316 µM
  viability, T/C: 37.3%
Second compound 0.03 µM, first compound 1 µM
  viability, T/C: 36.1%
Second compound 0.03 µM, first compound 3.16 µM
  viability, T/C: 38.2%
Second compound 0.03 µM, first compound 10 µM
  viability, T/C: 44%
Second compound 0.0949 µM, first compound 0.0316 µM
  viability, T/C: 5.21%
Second compound 0.0949 µM, first compound 0.1 µM
  viability, T/C: 5.14%
Second compound 0.0949 µM, first compound 0.316 µM
  viability, T/C: 5.02%
Second compound 0.0949 µM, first compound 1 µM
  viability, T/C: 5.85%
Second compound 0.0949 µM, first compound 3.16 µM
  viability, T/C: 5.97%
Second compound 0.0949 µM, first compound 10 µM
  viability, T/C: 6.03%
Second compound 0.3 µM, first compound 0.0316 µM
  viability, T/C: 5.75%
Second compound 0.3 µM, first compound 0.1 µM
  viability, T/C: 5.52%
Second compound 0.3 µM, first compound 0.316 µM
  viability, T/C: 4.6%
Second compound 0.3 µM, first compound 1 µM
  viability, T/C: 5.28%
Second compound 0.3 µM, first compound 3.16 µM
  viability, T/C: 5.46%
Second compound 0.3 µM, first compound 10 µM
  viability, T/C: 5.71%

## Cc1cc(C)c(CNC(=O)c2cc(-c3ccc(CN4CCOCC4)cc3)cc3c2cnn3C2CCCC2)c(=O)[nH]1 + Cn1nnc2c(C(N)=O)ncn2c1=O
Second compound 1 µM
  IC50: > 10 µM
Second compound 3.16 µM
  IC50: > 10 µM
Second compound 10 µM
  IC50: > 10 µM
Second compound 31.6 µM
  IC50: > 10 µM
Second compound 100 µM
  IC50: > 10 µM
Second compound 1 µM, first compound 0.0316 µM
  viability, T/C: 114%
Second compound 1 µM, first compound 0.1 µM
  viability, T/C: 97.9%
Second compound 1 µM, first compound 0.316 µM
  viability, T/C: 101%
Second compound 1 µM, first compound 1 µM
  viability, T/C: 113%
Second compound 1 µM, first compound 3.16 µM
  viability, T/C: 117%
Second compound 1 µM, first compound 10 µM
  viability, T/C: 104%
Second compound 3.16 µM, first compound 0.0316 µM
  viability, T/C: 99.2%
Second compound 3.16 µM, first compound 0.1 µM
  viability, T/C: 102%
Second compound 3.16 µM, first compound 0.316 µM
  viability, T/C: 92.7%
Second compound 3.16 µM, first compound 1 µM
  viability, T/C: 97.6%
Second compound 3.16 µM, first compound 3.16 µM
  viability, T/C: 110%
Second compound 3.16 µM, first compound 10 µM
  viability, T/C: 101%
Second compound 10 µM, first compound 0.0316 µM
  viability, T/C: 102%
Second compound 10 µM, first compound 0.1 µM
  viability, T/C: 100%
Second compound 10 µM, first compound 0.316 µM
  viability, T/C: 101%
Second compound 10 µM, first compound 1 µM
  viability, T/C: 109%
Second compound 10 µM, first compound 3.16 µM
  viability, T/C: 108%
Second compound 10 µM, first compound 10 µM
  viability, T/C: 104%
Second compound 31.6 µM, first compound 0.0316 µM
  viability, T/C: 91.2%
Second compound 31.6 µM, first compound 0.1 µM
  viability, T/C: 96.8%
Second compound 31.6 µM, first compound 0.316 µM
  viability, T/C: 94.8%
Second compound 31.6 µM, first compound 1 µM
  viability, T/C: 110%
Second compound 31.6 µM, first compound 3.16 µM
  viability, T/C: 104%
Second compound 31.6 µM, first compound 10 µM
  viability, T/C: 96%
Second compound 100 µM, first compound 0.0316 µM
  viability, T/C: 103%
Second compound 100 µM, first compound 0.1 µM
  viability, T/C: 108%
Second compound 100 µM, first compound 0.316 µM
  viability, T/C: 92.1%
Second compound 100 µM, first compound 1 µM
  viability, T/C: 102%
Second compound 100 µM, first compound 3.16 µM
  viability, T/C: 122%
Second compound 100 µM, first compound 10 µM
  viability, T/C: 109%
